# Reference: patent US9617258B2, “Pyrrolo[2,3-d]pyrimidinyl, pyrrolo[2,3-b]pyrazinyl and pyrrolo[2,3-d]pyridinyl acrylamides” (Pfizer Inc., priority 2013, dated 2017)
# Where two headings read alike, the source gives them in different places.
# What was measured:
# JAK3 enzyme [1] = target: T1, JAK3 enzyme (Homo sapiens (Human), UniProt P52333); test: JAK Caliper enzyme assay at 4 μM ATP; type: biochemical
# Description: (§1) JAK Caliper Enzyme Assay at 4 μM or 1 mM ATP
# (§2) Test article was solubilized in dimethyl sulfoxide (DMSO) to a stock concentration of 30 mM. An 11-point half log dilution series was created in DMSO with a top concentration of 600 μM. […] The compound plates were diluted 1 to 60 resulting in a top final assay compound concentration of 10 μM and a 2% DMSO concentration.
# (§3) Test article and assay controls were added to a 384-well plate. Reaction mixtures contained 20 mM HEPES, pH 7.4, 10 mM magnesium chloride, 0.01% bovine serum albumin (BSA), 0.0005% Tween 20, 4 μM or 1 mM ATP and 1 μM peptide substrate. […] The assays were initiated by the addition 1 nM JAK3 enzyme and were incubated at room temperature 75 minutes for JAK3. Enzyme concentrations and incubation times were optimized for each new enzyme preps and were modified slightly over time to ensure 20%-30% phosphorylation. The assays were stopped with a final concentration of 10 mM EDTA, 0.1% Coating Reagent and 100 mM HEPES, pH=7.4. The assay plates were placed on a Caliper Life Science Lab Chip 3000 (LC3000) instrument, and each well was sampled using appropriate separation conditions to measure the unphosphorylated and phosphorylated peptide.
# JAK3 enzyme [2] = target: T1, JAK3 enzyme; test: JAK Caliper enzyme assay at 1 mM ATP; type: biochemical
# Description: as §1, §2, §3
# [3] = Stability of JAK3 covalent inhibitors in human whole blood; type: in vitro ADME; conditions: both sexes, 37° C., read-out: Human blood stability t1/2;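 also: parent compound remaining over incubation time quantified by LC-MS/MS as peak area ratio against an internal standard, using pooled K2-EDTA blood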
# T1 sequence (P52333 whole entry, species assumed): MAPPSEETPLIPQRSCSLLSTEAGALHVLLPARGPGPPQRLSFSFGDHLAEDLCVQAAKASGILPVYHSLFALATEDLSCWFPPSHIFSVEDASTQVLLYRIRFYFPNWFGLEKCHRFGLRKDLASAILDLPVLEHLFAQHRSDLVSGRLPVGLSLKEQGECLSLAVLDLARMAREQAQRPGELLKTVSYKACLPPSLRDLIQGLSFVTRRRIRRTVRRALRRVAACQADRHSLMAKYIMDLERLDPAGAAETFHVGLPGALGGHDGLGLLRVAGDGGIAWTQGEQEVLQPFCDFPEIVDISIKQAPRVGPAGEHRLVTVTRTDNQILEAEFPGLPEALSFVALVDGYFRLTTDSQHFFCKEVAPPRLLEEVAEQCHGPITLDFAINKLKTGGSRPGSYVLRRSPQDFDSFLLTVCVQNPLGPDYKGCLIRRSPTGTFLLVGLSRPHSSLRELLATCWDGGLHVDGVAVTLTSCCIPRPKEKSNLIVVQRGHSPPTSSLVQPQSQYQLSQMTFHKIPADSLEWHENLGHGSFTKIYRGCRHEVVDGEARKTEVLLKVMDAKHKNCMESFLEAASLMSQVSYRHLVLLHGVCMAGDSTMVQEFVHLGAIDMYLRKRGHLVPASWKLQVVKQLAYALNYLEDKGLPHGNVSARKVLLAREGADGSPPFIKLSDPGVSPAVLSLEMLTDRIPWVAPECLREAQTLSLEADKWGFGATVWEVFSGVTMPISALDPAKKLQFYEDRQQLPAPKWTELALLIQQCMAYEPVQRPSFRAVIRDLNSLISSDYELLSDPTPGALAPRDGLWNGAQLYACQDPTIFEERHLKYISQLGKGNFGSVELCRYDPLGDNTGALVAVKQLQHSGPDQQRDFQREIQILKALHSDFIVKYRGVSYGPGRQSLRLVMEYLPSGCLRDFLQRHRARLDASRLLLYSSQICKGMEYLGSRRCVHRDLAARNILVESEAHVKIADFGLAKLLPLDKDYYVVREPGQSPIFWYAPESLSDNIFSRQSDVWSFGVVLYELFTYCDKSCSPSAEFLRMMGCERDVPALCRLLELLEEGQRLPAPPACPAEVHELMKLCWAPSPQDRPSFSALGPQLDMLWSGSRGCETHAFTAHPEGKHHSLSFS
smiles,measurement,setting,value
"C=CC(=O)N1C[C@@H](Nc2ncnc3[nH]ccc23)[C@@H]2CC[C@H]1C2 [Example 126, 1-((1S,4S,5R)-4-(7H-pyrrolo[2,3-d]pyrimidin-4-ylamino)-2-azabicyclo[3.2.1]octan-2-yl)prop-2-en-1-one]",IC50,JAK3 enzyme [1]; read-out: JAK3 (4 μM ATP) IC50,602 nM
same,IC50,JAK3 enzyme [2],> 10000 nM
"C=CC(=O)N1CCC[C@H](Nc2ncnc3[nH]ccc23)[C@H]1C (racemic) [Example 121, rac-1-((2R,3S)-3-((7H-Pyrrolo[2,3-d]pyrimidin-4-yl)amino)-2-methylpiperidin-1-yl)prop-2-en-1-one]",IC50,JAK3 enzyme [1],648 nM
same,half-life at 1 μM,[3]; whole blood,> 6 h
same,IC50,JAK3 enzyme [2],> 10000 nM
"C=CC(=O)N1CC[C@H](O)[C@@H](Nc2ncnc3[nH]ccc23)C1 (racemic) [Example 113, rac-1-[(3S,4S)-4-Hydroxy-3-(7H-pyrrolo[2,3-d]pyrimidin-4-ylamino)piperidin-1-yl]prop-2-en-1-one]",IC50,JAK3 enzyme [1],42.4 nM
same,IC50,JAK3 enzyme [2],8480 nM
"C/C=C/C(=O)N1CC[C@@H](O)[C@@H](Nc2ncnc3[nH]ccc23)C1 (racemic) [Example 160, rac-(2E)-1-[(3S,4R)-4-Hydroxy-3-(7H-pyrrolo[2,3-d]pyrimidin-4-ylamino)piperidin-1-yl]but-2-en-1-one]",IC50,JAK3 enzyme [1],> 10000 nM
"C=CC(=O)c1c[nH]c2ncnc(N[C@H]3CN(C(=O)C=C)CC[C@H]3F)c12 [Example 120, 1-(4-{[(3S,4R)-1-Acryloyl-4-fluoropiperidin-3-yl]amino}-7H-pyrrolo[2,3-d]pyrimidin-5-yl)prop-2-en-1-one]",IC50,JAK3 enzyme [2]; read-out: JAK3 (1 mM ATP) IC50,> 10000 nM
"C=CC(=O)N1C[C@@H]2C[C@H]1CN2c1cnc2[nH]cc(C(=O)NC(C)C)c2n1 [Example 300, 2-[(1S,4S)-5-acryloyl-2,5-diazabicyclo[2.2.1]hept-2-yl]-N-(propan-2-yl)-5H-pyrrolo[2,3-b]pyrazine-7-carboxamide]",IC50,JAK3 enzyme [1],0.9 nM
same,half-life at 1 μM,"[3]; whole blood (fresh, pooled, K2-EDTA)",1.95 h
same,IC50,JAK3 enzyme [2],84.4 nM
"C=CC(=O)N1CC[C@@H](Nc2cnc3[nH]ccc3n2)C1 [Example 335, (R)-1-(3-((5H-Pyrrolo[2,3-b]pyrazin-2-yl)amino)pyrrolidin-1-yl)prop-2-en-1-one]",IC50,JAK3 enzyme [2]; read-out: JAK3 (1 mM ATP) IC50,> 10000 nM
"C=CC(=O)N1C[C@H](Nc2ncnc3[nH]ccc23)[C@H]2CC[C@@H]1C2 [Example 127, 1-((1R,4R,5S)-4-(7H-pyrrolo[2,3-d]pyrimidin-4-ylamino)-2-azabicyclo[3.2.1]octan-2-yl)prop-2-en-1-one]",IC50,JAK3 enzyme [1]; read-out: JAK3 (4 μM ATP) IC50,190 nM
same,IC50,JAK3 enzyme [2]; read-out: JAK3 (1 mM ATP) IC50,> 10000 nM
"O=C(C1=CCC1)N1CC[C@@H]2CCN(c3ncnc4[nH]ccc34)[C@@H]2C1 [Example 86, cyclobut-1-en-1-yl[(3aS,7aS)-1-(7H-pyrrolo[2,3-d]pyrimidin-4-yl)octahydro-6H-pyrrolo[2,3-c]pyridin-6-yl]methanone]",IC50,JAK3 enzyme [1]; read-out: JAK3 (4 μM ATP) IC50,149 nM
same,half-life at 1 μM,[3]; whole blood,> 6 h
same,IC50,JAK3 enzyme [2]; read-out: JAK3 (1 mM ATP) IC50,> 10000 nM
"C=CC(=O)N1C[C@@H](O)C[C@@H](Nc2ncnc3[nH]cc(Cl)c23)C1 [Example 162, 1-{(3R,5S)-3-[(5-Chloro-7H-pyrrolo[2,3-d]pyrimidin-4-yl)amino]-5-hydroxypiperidin-1-yl}prop-2-en-1-one]",half-life at 1 μM,[3]; whole blood,> 6 h
"C=CC(=O)N1CCC(Nc2cnc3[nH]cc(-c4cnc(OC)nc4)c3n2)CC1 [Example 210, 1-(4-{[7-(2-methoxypyrimidin-5-yl)-5H-pyrrolo[2,3-b]pyrazin-2-yl]amino}piperidin-1-yl)prop-2-en-1-one]",half-life at 1 μM,[3]; whole blood,> 6 h
C=CC(=O)N1C[C@H](Nc2ncnc3[nH]cc(CCOC)c23)CC[C@@H]1C [Example 13],half-life at 1 μM,[3]; whole blood,5.08 h
"C/C=C/C(=O)N1CC[C@@H]2CCN(c3ncnc4[nH]ccc34)[C@@H]2C1 [Example 84, (2E)-1-[(3aS,7aS)-1-(7H-pyrrolo[2,3-d]pyrimidin-4-yl)octahydro-6H-pyrrolo[2,3-c]pyridin-6-yl]but-2-en-1-one]",IC50,JAK3 enzyme [1]; read-out: JAK3 (4 μM ATP) IC50,727 nM
same,IC50,JAK3 enzyme [2]; read-out: JAK3 (1 mM ATP) IC50,> 10000 nM
"C=CC(=O)N1C[C@@H](C)C[C@@H](Nc2ncnc3[nH]ccc23)C1 (single isomer, unassigned) [Example 14]",half-life at 1 μM,[3]; whole blood,> 4.18 h
"C=CC(=O)N(C)C1CN(c2cnc3[nH]cc(C(=O)NC(C)C)c3n2)C1 [Example 187, 2-{3-[acryloyl(methyl)amino]azetidin-1-yl}-N-(propan-2-yl)-5H-pyrrolo[2,3-b]pyrazine-7-carboxamide]",half-life at 1 μM,[3]; whole blood,> 6 h
"C=CC(=O)N1CCC(Nc2cnc3[nH]cc(C(=O)NC4CCCCC4(F)F)c3n2)CC1 (stereo not drawn) [Example 256, 2-[(1-acryloylpiperidin-4-yl)amino]-N-(2,2-difluorocyclohexyl)-5H-pyrrolo[2,3-b]pyrazine-7-carboxamide]",half-life at 1 μM,[3]; whole blood,3.98 h
"C=CC(=O)N1CCC(Oc2cnc3[nH]cc(C(=O)NC(C)C)c3n2)CC1 [Example 339, 2-((1-Acryloylpiperidin-4-yl)oxy)-N-isopropyl-5H-pyrrolo[2,3-b]pyrazine-7-carboxamide]",half-life at 1 μM,[3]; whole blood,3.78 h
"C=CC(=O)N[C@H]1C[C@@H](Nc2cnc3[nH]cc(C(=O)NC(C)C)c3n2)C1 [Example 184, 2-{[cis-3-(acryloylamino)cyclobutyl]amino}-N-(propan-2-yl)-5H-pyrrolo[2,3-b]pyrazine-7-carboxamide]",half-life at 1 μM,[3]; whole blood,> 6 h
"C=CC(=O)N1CCC[C@](C)(Nc2ncnc3[nH]ccc23)C1 [Example 70, (S)-1-(3-((7H-Pyrrolo[2,3-d]pyrimidin-4-yl)amino)-3-methylpiperidin-1-yl)prop-2-en-1-one]",half-life at 1 μM,[3]; whole blood,5.72 h
"C=CC(=O)N1CCC(Oc2cnc3[nH]cc(-c4cnn(C)c4)c3n2)CC1 [Example 218, 1-(4-{[7-(1-methyl-1H-pyrazol-4-yl)-5H-pyrrolo[2,3-b]pyrazin-2-yl]oxy}piperidin-1-yl)prop-2-en-1-one]",half-life at 1 μM,[3]; whole blood,> 6 h
"C=CC(=O)N1CC[C@H](Nc2cnc3[nH]cc(C(=O)NC(C)C)c3n2)C1 [Example 171, 2-{[(3S)-1-acryloylpyrrolidin-3-yl]amino}-N-(propan-2-yl)-5H -pyrrolo[2,3-b]pyrazine-7-carboxamide]",half-life at 1 μM,[3]; whole blood,> 6 h
"C=CC(=O)N1CC[C@@H]2CCN(c3ncnc4[nH]ccc34)[C@@H]2C1 (single isomer, unassigned) [Example 8]",half-life at 1 μM,[3]; whole blood,3.2 h
"C=CC(=O)N1CCC(Nc2cnc3[nH]cc(C(=O)N[C@@H]4C[C@H]4C(F)(F)F)c3n2)CC1 [Example 233, 2-[(1-acryloylpiperidin-4-yl)amino]-N-[(1R,2R)-2-(trifluoromethyl)cyclopropyl]-5H-pyrrolo[2,3-b]pyrazine-7-carboxamide]",IC50,JAK3 enzyme [1]; read-out: JAK3 (4 μM ATP) IC50,0.2 nM
same,IC50,JAK3 enzyme [2]; read-out: JAK3 (1 mM ATP) IC50,20.6 nM
"C=CC(=O)N1C[C@H](Nc2ncnc3[nH]ccc23)CC[C@H]1CC [Example 124, 1-[(2R,5R)-2-Ethyl-5-(7H-pyrrolo[2,3-d]pyrimidin-4-ylamino)piperidin-1-yl]prop-2-en-1-one]",IC50,JAK3 enzyme [1]; read-out: JAK3 (4 μM ATP) IC50,265 nM
same,IC50,JAK3 enzyme [2]; read-out: JAK3 (1 mM ATP) IC50,> 10000 nM
"C=CC(=O)N1CCN(c2cnc3[nH]cc(C(=O)NC(C)C)c3n2)[C@H](C)C1 [Example 307, 2-[(2R)-4-acryloyl-2-methylpiperazin-1-yl]-N-(propan-2-yl)-5H-pyrrolo[2,3-b]pyrazine-7-carboxamide]",half-life at 1 μM,[3]; whole blood,2.03 h
"C=CC(=O)N1[C@@H]2CC[C@H]1CN(c1cnc3[nH]cc(C(=O)NC(C)C)c3n1)C2 [Example 301, 2-[(1R,5S)-8-acryloyl-3,8-diazabicyclo[3.2.1]oct-3-yl]-N-(propan-2-yl)-5H-pyrrolo[2,3-b]pyrazine-7-carboxamide]",half-life at 1 μM,[3]; whole blood,1.4 h
"C=C(C(=O)N1CC[C@@H]2CCN(c3ncnc4[nH]ccc34)[C@@H]2C1)C(F)(F)F [Example 41, 1-((3aS,7aS)-1-(7H-Pyrrolo[2,3-d]pyrimidin-4-yl)hexahydro-1H-pyrrolo[2,3-c]pyridin-6(2H)-yl)-2-(trifluoromethyl)prop-2-en-1-one]",half-life at 1 μM,[3]; whole blood,0.0467 h
